One data set deals with HIV-IIIb. Put plainly: Test A: Antiviral Assay in MT4 Cells. The format is cell-based, HIV-1. The settings on record: Human immunodeficiency virus 1, IIIB, MT4, 120 h; for inhibition at 0.2 µM: read-out: % inhibition at 0.2 μM; for inhibition at 2 µM: read-out: % inhibition at 2 μM. As to the method: Test A: Antiviral Assay in MT4 Cells
MT-4 cells were next mixed with HIV-IIIb at an m.o.i of 0.003 for 1 hour, after which time 35 μL of virus/cell mixture (2000 cells) was immediately added to each well containing 40 μL of diluted compound. The plates were then incubated at 37° C. for 5 days. […] Cell lysis was carried out by incubating at room temperature for 10 min and then chemiluminescence was read.

A short description of data set [1]: Test B: Cytotoxicity Assay. Format: cell-based. As to conditions: human, uninfected MT-4 cells, same protocol as Test A. The procedure, abridged: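 Uninfected MT-4 cells (2000 per well) incubated with diluted compound at 37° C. for 5 days, following the antiviral protocol without HIV-IIIb.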

For `COc1cc(-c2ccc(Cl)c3c(NS(C)(=O)=O)nn(C)c23)c([C@H](Cc2cc(F)cc(F)c2)NC(=O)Cn2nc(C(F)F)c3c2C(F)(F)[C@@H]2C[C@H]32)nc1C#CC(C)(C)O` [Compound 139B, N—((S)-1-(3-(4-chloro-1-methyl-3-(methylsulfonamido)-1H-indazol-7-yl)-6-(3-hydroxy-3-methylbut-1-yn-1-yl)-5-methoxypyridin-2-yl)-2-(3,5-difluorophenyl)ethyl)-2-((3b-S,4aR)-3-(difluoromethyl)-5,5-difluoro-3b,4,4a,5-tetrahydro-1H-cyclopropa[3,4]cyclopenta[1,2-c]pyrazol-1-yl)acetamide], in the data set on HIV-IIIb, the inhibition (usually the drop in the measured response relative to a control, in per cent) at 0.2 µM amounted to 94% and the inhibition at 2 µM came to 94%. Besides, the CC50 (as a rule, the concentration that lowers cell viability or growth by half) at 5 days in data set [1] was 15.4 µM.

For the compound `Cn1nc(NS(N)(=O)=O)c2cccc(-c3ccc(C#CC(C)(C)O)nc3[C@H](Cc3cc(F)cc(F)c3)NC(=O)Cn3nc(C(F)(F)F)c4c3C(F)(F)[C@@H]3C[C@H]43)c21` [Compound 44, 2-((3bS,4aR)-5,5-difluoro-3-(trifluoromethyl)-3b,4,4a,5-tetrahydro-1H-cyclopropa[3,4]cyclopenta[1,2-c]pyrazol-1-yl)-N—((S)-2-(3,5-difluorophenyl)-1-(6-(3-hydroxy-3-methylbut-1-yn-1-yl)-3-(1-methyl-3-(sulfamoylamino)-1H-indazol-7-yl)pyridin-2-yl)ethyl)acetamide], in the data set on HIV-IIIb, the inhibition at 0.2 µM was determined as 94% and the inhibition at 2 µM was 94%. In data set [1], this compound came in with a CC50 at 5 days of 6.82 µM.

For `COCC(C)(O)C#Cc1ccc(-c2ccc(Cl)c3c(NS(C)(=O)=O)nn(C)c23)c([C@H](Cc2cc(F)cc(F)c2)NC(=O)Cn2nc(C(F)(F)F)c3c2C(F)(F)[C@@H]2C[C@H]32)n1` (stereo partly drawn) [Compound 154, N-((1S)-1-(3-(4-chloro-1-methyl-3-(methylsulfonamido)-1H-indazol-7-yl)-6-(3-hydroxy-4-methoxy-3-methylbut-1-yn-1-yl)pyridin-2-yl)-2-(3,5-difluorophenyl)ethyl)-2-((3bS,4aR)-5,5-difluoro-3-(trifluoromethyl)-3b,4,4a,5-tetrahydro-1H-cyclopropa[3,4]cyclopenta[1,2-c]pyrazol-1-yl)acetamide], in the data set with HIV-IIIb, the inhibition at 0.2 µM came to 97% and the inhibition at 2 µM came out at 97%. Further, in data set [1], the CC50 at 5 days was determined as 12.5 µM.

`CC(C)(O)C#Cc1ccc(-c2cccc3c(NS(C)(=O)=O)noc23)c([C@H](Cc2cc(F)cc(F)c2)NC(=O)Cn2nc(C(F)(F)F)c3c2C(F)(F)[C@@H]2C[C@H]32)n1` [Compound 39C, 2-((3bS,4aR)-5,5-difluoro-3-(trifluoromethyl)-3b,4,4a,5-tetrahydro-1H-cyclopropa[3,4]cyclopenta[1,2-c]pyrazol-1-yl)-N—((S)-2-(3,5-difluorophenyl)-1-(6-(3-hydroxy-3-methylbut-1-yn-1-yl)-3-(3-(methylsulfonamido)benzo[d]isoxazol-7-yl)pyridin-2-yl)ethyl)acetamide]: in the data set on HIV-IIIb, the inhibition at 0.2 µM came to 7% and the inhibition at 2 µM was found to be 91%. Also, the CC50 at 5 days in data set [1] turned out to be 26.5 µM.

With `CC(C)(O)C#Cc1ccc(-c2cccc3c(N)noc23)c([C@H](Cc2cc(F)cc(F)c2)NC(=O)Cn2nc(C(F)(F)F)c3c2C(F)(F)[C@@H]2C[C@H]32)n1` [Compound 69, N—((S)-1-(3-(3-aminobenzo[d]isoxazol-7-yl)-6-(3-hydroxy-3-methylbut-1-yn-1-yl)pyridin-2-yl)-2-(3,5-difluorophenyl)ethyl)-2-((3b-S,4aR)-5,5-difluoro-3-(trifluoromethyl)-3b,4,4a,5-tetrahydro-1H-cyclopropa[3,4]cyclopenta[1,2-c]pyrazol-1-yl)acetamide], in the data set on HIV-IIIb, the inhibition at 0.2 µM was 77% and the inhibition at 2 µM stood at 77%. Moreover, in data set [1], the CC50 at 5 days came to 0.718 µM.

In the case of `O=C(Cn1nc(C(F)F)c2c1C(F)(F)CCC2(F)F)N[C@@H](Cc1cc(F)cc(F)c1)c1nc(-c2c[nH]nn2)ccc1-c1cnc2[nH]ccc2c1` [Compound 16C, (S)—N-(1-(3-(1H-pyrrolo[2,3-b]pyridin-5-yl)-6-(1H-1,2,3-triazol-4-yl)pyridin-2-yl)-2-(3,5-difluorophenyl)ethyl)-2-(3-(difluoromethyl)-4,4,7,7-tetrafluoro-4,5,6,7-tetrahydro-1H-indazol-1-yl)acetamide], in the data set with HIV-IIIb, the inhibition at 0.2 µM came to 23% and the inhibition at 2 µM was found to be 65%. Further, the CC50 at 5 days in data set [1] turned out to be 3.67 µM.

For `COc1ccc(-c2ccc(C#CC(C)(C)C)nc2[C@H](Cc2cc(F)cc(F)c2)NC(=O)Cn2nc(C(F)F)c3c2C(F)(F)[C@@H]2C[C@H]32)c2nnc(NS(C)(=O)=O)n12` [Compound 130, 2-((3bS,4aR)-3-(difluoromethyl)-5,5-difluoro-3b,4,4a,5-tetrahydro-1H-cyclopropa[3,4]cyclopenta[1,2-c]pyrazol-1-yl)-N—((S)-2-(3,5-difluorophenyl)-1-(6-(3,3-dimethylbut-1-yn-1-yl)-3-(5-methoxy-3-(methylsulfonamido)-[1,2,4]triazolo[4,3-a]pyridin-8-yl)pyridin-2-yl)ethyl)acetamide], in the data set with HIV-IIIb, the inhibition at 0.2 µM was 80% and the inhibition at 2 µM was 85%. For the same compound, in data set [1], the midpoint of cytotoxicity, the CC50 at 5 days, lay at 23.2 µM.

Regarding `CC(C)(O)C#Cc1ccc(-c2ccc(Cl)n3c(N)nnc23)c([C@H](Cc2cc(F)cc(F)c2)NC(=O)Cn2nc(C(F)F)c3c2C(F)(F)[C@@H]2C[C@H]32)n1` [Compound 106E, N—((S)-1-(3-(3-amino-5-chloro-[1,2,4]triazolo[4,3-a]pyridin-8-yl)-6-(3-hydroxy-3-methylbut-1-yn-1-yl)pyridin-2-yl)-2-(3,5-difluorophenyl)ethyl)-2-((3b-S,4aR)-3-(difluoromethyl)-5,5-difluoro-3b,4,4a,5-tetrahydro-1H-cyclopropa[3,4]cyclopenta[1,2-c]pyrazol-1-yl)acetamide], in the data set on HIV-IIIb, the inhibition at 0.2 µM stood at 95% and the inhibition at 2 µM is 96%. Also, in data set [1], the CC50 at 5 days is 12.4 µM.

Consider `Cn1nc(NS(C)(=O)=O)c2c(Cl)ccc(-c3ccc(C#CC(C)(O)CO)nc3[C@H](Cc3cc(F)cc(F)c3)NC(=O)Cn3nc(C(F)F)c4c3C(F)(F)[C@@H]3C[C@H]43)c21` (stereo partly drawn) [Compound 166, N-((1S)-1-(3-(4-chloro-1-methyl-3-(methylsulfonamido)-1H-indazol-7-yl)-6-(3,4-dihydroxy-3-methylbut-1-yn-1-yl)pyridin-2-yl)-2-(3,5-difluorophenyl)ethyl)-2-((3b-S,4aR)-3-(difluoromethyl)-5,5-difluoro-3b,4,4a,5-tetrahydro-1H-cyclopropa[3,4]cyclopenta[1,2-c]pyrazol-1-yl)acetamide], for which, in the data set on HIV-IIIb, the inhibition at 0.2 µM came out at 92% and the inhibition at 2 µM was 92%. This compound also yielded a CC50 at 5 days in data set [1] of 24.4 µM.

For `Cc1ccc(-c2ccc(C#CC(C)(C)C)nc2[C@H](Cc2cc(F)cc(F)c2)NC(=O)Cn2nc(C(F)F)c3c2C(F)(F)[C@@H]2C[C@H]32)c2nnc(N)n12` [Compound 116A, N—((S)-1-(3-(3-amino-5-methyl-[1,2,4]triazolo[4,3-a]pyridin-8-yl)-6-(3,3-dimethylbut-1-yn-1-yl)pyridin-2-yl)-2-(3,5-difluorophenyl)ethyl)-2-((3b-S,4aR)-3-(difluoromethyl)-5,5-difluoro-3b,4,4a,5-tetrahydro-1H-cyclopropa[3,4]cyclopenta[1,2-c]pyrazol-1-yl)acetamide], in the data set with HIV-IIIb, the inhibition at 0.2 µM worked out at 62% and the inhibition at 2 µM came to 93%. Further, the CC50 at 5 days in data set [1] was found to be 10.5 µM.

These data come from patent US20140303164A1, “THERAPEUTIC COMPOUNDS” (Gilead Sciences, Inc., priority 2013, published 2014).
